Test results from patent publication US11299478B2, “2-cyanopyrimidin-4-yl carbamate or urea derivative or salt thereof, and pharmaceutical composition including same” (HANLIM PHARMACEUTICAL CO., LTD., priority 2018, dated 2022).

What was measured:
Type in all cases: biochemical
cathepsin S = cathepsin S (Homo sapiens, UniProt P25774); test: Inhibitory activity assay against cathepsin S (enzyme assay); conditions: Z-Phe-Arg-AMC 70 μM, enzyme 3 nM, pH 6.5, 45 minutes
Summary of the method: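 Cathepsin S (3 nM final) with Z-Phe-Arg-AMC substrate (70 μM final) in pH 6.5 buffer of 50 mM MES, 2.5 mM DTT, 1.0 mM EDTA, 0.001% BSA, 10% DMSO; compound 10.0 μM down to 0.000508 μM, 10 points. Fluorescence (ex 340/em 460 nm) after 45 min; IC50 by 4-parameter logistic fit.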

cathepsin B = cathepsin B (Homo sapiens, UniProt P07858); test: Inhibitory activity assay against cathepsin B (enzyme assay); conditions: Z-Arg-Arg-AMC 40 μM, enzyme 1 nM, pH 6.0, 90 minutes
Summary of the method: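 1 nM enzyme with 40 μM Z-Arg-Arg-AMC and compound (10.0 μM down to 0.000508 μM, 10 points) in pH 6.0 buffer of 50 mM MES, 5 mM DTT, 2.5 mM EDTA, 0.005% Polysorbate 20, 10% DMSO. Fluorescence (340/460 nm) read after 90 min; IC50 by 4-parameter logistic fit.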

cathepsin K = target: T1, cathepsin K (Homo sapiens, UniProt P43235); test: Inhibitory activity assay against cathepsin K (enzyme assay); conditions: Z-Phe-Arg-AMC 10 μM, enzyme 1 nM, pH 5.5, 30 minutes
T1 sequence (P43235 115-329): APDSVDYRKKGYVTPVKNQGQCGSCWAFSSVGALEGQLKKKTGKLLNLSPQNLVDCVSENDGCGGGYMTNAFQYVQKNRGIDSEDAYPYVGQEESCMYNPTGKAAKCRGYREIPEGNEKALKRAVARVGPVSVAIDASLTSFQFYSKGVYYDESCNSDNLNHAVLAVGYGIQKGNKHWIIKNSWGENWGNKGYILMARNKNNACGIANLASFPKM
Summary of the method: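 Fluorogenic assay with 1 nM cathepsin K and 10 μM Z-Phe-Arg-AMC in pH 5.5 buffer (50 mM MES, 2 mM DTT, 2.5 mM EDTA, 0.01% Triton X-100, 10% DMSO). Ten compound concentrations, 10.0 to 0.000508 μM; 30 min reaction, ex 355/em 460 nm; IC50 by 4-parameter logistic fit.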

cathepsin L = cathepsin L (Homo sapiens, UniProt P07711); test: Inhibitory activity assay against cathepsin L (enzyme assay); conditions: Z-Phe-Arg-AMC 2 μM, enzyme 3 nM, pH 5.5, 30 minutes
Summary of the method: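 Enzyme at 3 nM with 2 μM Z-Phe-Arg-AMC in 50 mM MES pH 5.5, 2.5 mM DTT, 2.5 mM EDTA, 0.005% Polysorbate 20, 10% DMSO; 30 min reaction, AMC fluorescence 340/460 nm. Ten-point series 10.0 μM to 0.000508 μM; IC50 by 4-parameter logistic fit.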

Sequence of cathepsin L (P07711 114-333, species assumed): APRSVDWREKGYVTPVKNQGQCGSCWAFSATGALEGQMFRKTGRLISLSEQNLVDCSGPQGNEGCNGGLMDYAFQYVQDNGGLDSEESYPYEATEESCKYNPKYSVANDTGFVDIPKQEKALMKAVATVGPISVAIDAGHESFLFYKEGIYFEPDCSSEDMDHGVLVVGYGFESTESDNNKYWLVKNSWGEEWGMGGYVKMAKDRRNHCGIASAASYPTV
Sequence of cathepsin S (P25774 115-331, species assumed): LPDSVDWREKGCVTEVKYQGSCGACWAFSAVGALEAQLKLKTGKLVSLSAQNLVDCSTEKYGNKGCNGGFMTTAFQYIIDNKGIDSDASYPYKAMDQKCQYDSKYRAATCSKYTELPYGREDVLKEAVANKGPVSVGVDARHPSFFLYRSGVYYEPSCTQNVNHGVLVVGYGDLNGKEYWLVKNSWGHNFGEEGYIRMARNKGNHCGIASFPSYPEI

| SMILES | IC50 (cathepsin S) [nM] | IC50 (cathepsin B) [nM] | IC50 (cathepsin K) [nM] | IC50 (cathepsin L) [nM] |
| --- | --- | --- | --- | --- |
| N#Cc1nccc(C2(NC(=O)OCc3ccccc3Cl)CCCCC2)n1 [Example 28, 2-chlorobenzyl (1-(2-cyanopyrimidin-4-yl)cyclohexyl)carbamate] | > 10000 | > 10000 | 35.8 | 8780 |
| COc1ccccc1COC(=O)NC1(c2ccnc(C#N)n2)CCCCC1 [Example 21, 2-methoxybenzyl (1-(2-cyanopyrimidin-4-yl)cyclohexyl)carbamate] | > 10000 | > 10000 | 83.8 | 2860 |
| CN(C)C(=O)c1ccc(-c2ccc(NC(=O)NC3(c4ccnc(C#N)n4)CCCCC3)cc2)cc1 [Example 130, 4′-(3-(1-(2-cyanopyrimidin-4-yl)cyclohexyl)ureido)-N,N-dimethyl-[1,1′-biphenyl]-4-carboxamide] | 9070 | > 10000 | 7.8 | > 10000 |
| CN(C)CCOc1ccc(-c2ccc(NC(=O)NC3(c4ccnc(C#N)n4)CCCCC3)cc2)cc1 [Example 153, 1-(1-(2-cyanopyrimidin-4-yl)cyclohexyl)-3-(4′-(2-(dimethylamino)ethoxy)-[1,1′-biphenyl]-4-yl)urea] | > 10000 | 4800 | 0.2 | 6720 |
| N#Cc1nccc(C2(NC(=O)Nc3ccc4c(c3)CCC4)CCCC2)n1 [Example 82, 1-(1-(2-cyanopyrimidin-4-yl)cyclopentyl)-3-(2,3-dihydro-1H-inden-5-yl)urea] | > 10000 | 7610 | 54.5 | > 10000 |
| CN1CCN(c2ccc(NC(=O)NC3(c4ccnc(C#N)n4)CCCCC3)cc2)CC1 [Example 138, 1-(1-(2-cyanopyrimidin-4-yl)cyclohexyl)-3-(4-(4-methylpiperazin-1-yl)phenyl)urea] | ≥ 10000 | > 10000 | 5.8 | 4200 |
| N#Cc1nccc(C2(NC(=O)OCc3cccc(Br)c3)CCCC2)n1 [Example 3, 3-bromobenzyl (1-(2-cyanopyrimidin-4-yl)cyclopentyl)carbamate] | > 10000 | > 10000 | 507 | 6390 |
| CC(=O)NCc1ccc(-c2ccc(NC(=O)NC3(c4ccnc(C#N)n4)CCCCC3)cc2F)cc1 [Example 165, N-((4′-(3-(1-(2-cyanopyrimidin-4-yl)cyclohexyl)ureido)-2′-fluoro-[1,1′-biphenyl]-4-yl)methyl)acetamide] | > 10000 | > 10000 | 5.7 | > 10000 |
| CS(=O)(=O)c1ccc(-c2ccc(NC(=O)NC3(c4ccnc(C#N)n4)CCCCC3)cc2)cc1F [Example 170, 1-(1-(2-cyanopyrimidin-4-yl)cyclohexyl)-3-(3′-fluoro-4′-(methylsulfonyl)-[1,1′-biphenyl]-4-yl)urea] | > 10000 | > 10000 | 39.5 | > 10000 |
| N#Cc1nccc(C2(NC(=O)Nc3ccc(-c4ccc(C(=O)NCCn5nccn5)cc4)c(F)c3)CCCCC2)n1 [Example 188, N-(2-(2H-1,2,3-triazol-2-yl)ethyl)-4′-(3-(1-(2-cyanopyrimidin-4-yl)cyclohexyl)ureido)-2′-fluoro-[1,1′-biphenyl]-4-carboxamide] | 4330 | > 10000 | 16.1 | > 10000 |
| Cc1ccc(CNC(=O)NC2(c3ccnc(C#N)n3)CCCC2)cc1 [Example 48, 1-(1-(2-cyanopyrimidin-4-yl)cyclopentyl)-3-(4-methylbenzyl)urea] | > 10000 | > 10000 | 49.6 | > 10000 |
| CC(NC(=O)NC1(c2ccnc(C#N)n2)CCCC1)c1ccccc1 (centres unmarked) [Example 51, 1-(1-(2-cyanopyrimidin-4-yl)cyclopentyl)-3-(1-phenylethyl)urea] | > 10000 | > 10000 | 38.8 | 4170 |
| N#Cc1nccc(C2(NC(=O)OCc3ccc(C(F)(F)F)cc3)CCCCC2)n1 [Example 24, 4-(trifluoromethyl)benzyl (1-(2-cyanopyrimidin-4-yl)cyclohexyl)carbamate] | > 10000 | > 10000 | 37.9 | > 10000 |
| C#Cc1ccc(-c2ccc(NC(=O)NC3(c4ccnc(C#N)n4)CCCCC3)cc2)cc1 [Example 122, 1-(1-(2-cyanopyrimidin-4-yl)cyclohexyl)-3-(4′-ethynyl-[1,1′-biphenyl]-4-yl)urea] | > 10000 | > 10000 | 16.9 | > 10000 |
| CS(=O)(=O)c1ccc(-c2cccc(COC(=O)NC3(c4ccnc(C#N)n4)CCCC3)c2)cc1 [Example 30, (4′-(methylsulfonyl)-[1,1′-biphenyl]-3-yl)methyl (1-(2-cyanopyrimidin-4-yl)cyclopentyl)carbamate] | 9450 | > 10000 | 355 | > 10000 |
| Cn1ncc2ccc(-c3ccc(NC(=O)NC4(c5ccnc(C#N)n5)CCCCC4)cc3)cc21 [Example 118, 1-(1-(2-cyanopyrimidin-4-yl)cyclohexyl)-3-(4-(1-methyl-1H-indazol-6-yl)phenyl)urea] | > 10000 | > 10000 | 16.6 | > 10000 |
| N#Cc1nccc(C2(NC(=O)Nc3ccc(I)c(C(F)(F)F)c3)CCCCC2)n1 [Example 136, 1-(1-(2-cyanopyrimidin-4-yl)cyclohexyl)-3-(4-iodo-3-(trifluoromethyl)phenyl)urea] | > 10000 | > 10000 | 24.5 | > 10000 |
| Cc1ccc(F)c(NC(=O)NC2(c3ccnc(C#N)n3)CCCCC2)c1 [Example 94, 1-(1-(2-cyanopyrimidin-4-yl)cyclohexyl)-3-(2-fluoro-5-methylphenyl)urea] | 8240 | > 10000 | 9 | 1130 |
| N#Cc1nccc(C2(NC(=O)OCc3cccc(-c4ccc(F)nc4)c3)CCCC2)n1 [Example 35, 3-(6-fluoropyridin-3-yl)benzyl (1-(2-cyanopyrimidin-4-yl)cyclopentyl)carbamate] | > 10000 | > 10000 | 492 | > 10000 |
| CS(=O)(=O)c1ccc(-c2ccc(NC(=O)NC3(c4ccnc(C#N)n4)CCCCC3)cc2C(F)(F)F)cc1C(F)(F)F [Example 178, 1-(1-(2-cyanopyrimidin-4-yl)cyclohexyl)-3-(4′-(methylsulfonyl)-2,3′-bis(trifluoromethyl)-[1,1′-biphenyl]-4-yl)urea] | 5600 | > 10000 | 21.2 | > 10000 |
| N#Cc1nccc(C2(NC(=O)OCc3cccc(Br)c3)CCCCC2)n1 [Example 12, 3-bromobenzyl (1-(2-cyanopyrimidin-4-yl)cyclohexyl)carbamate] | > 10000 | > 10000 | 168 | 6910 |
| N#Cc1nccc(C2(NC(=O)OCc3ccc(-c4ccc(N5CCOCC5)cc4)cc3)CCCC2)n1 [Example 31, (4′-morpholino-[1,1′-biphenyl]-4-yl)methyl (1-(2-cyanopyrimidin-4-yl)cyclopentyl)carbamate] | > 10000 | > 10000 | 934 | > 10000 |
| COc1ccc(COC(=O)NC2(c3ccnc(C#N)n3)CCCCC2)cc1 [Example 25, 4-methoxybenzyl (1-(2-cyanopyrimidin-4-yl)cyclohexyl)carbamate] | > 10000 | > 10000 | 41 | > 10000 |
